Measurements taken from US20080194574A1, “Pyrazine Derivatives As Effective Compounds Against Infectious Diseases” (AXXIMA PHARMACEUTICALS AG, priority 2003, published 2008).

These compounds were tested against T1, viral kinase pUL-97 (Human cytomegalovirus, UniProt P16788) (assay: UL97 kinase assay on Immobilon plate). Details: inhibition of UL 97 kinase activity; class by IC50 / % inhibition at 10 μM or 100 μM; read-out: Activity Class [A, B, C].
T1 construct: The pUL-97 gene was cloned into a baculovirus vector; GST (glutathione S-transferase) (N); made in house; host or cells: Sf9 insect cells, baculovirus
Type: biochemical
Protocol: UL97 Kinase-Assay on Immobilon Plate
The effect of pyrazine derivatives of this invention was tested on the activity of the viral kinase pUL-97. This kinase is derived from human cytomegalovirus (HCMV) (M. Marschall et al., Journal of General Virology, 2001, 82, 1439-1450). The pUL-97 gene was cloned into a baculovirus vector in order to produce GST (glutathione S-transferase) fusion protein. Insect cells (Sf9) were infected and GST-UL-97 purified via glutathione affinity columns according to standard procedures.
The pUL-97 kinase reaction was performed as described (M. Marschall et al., Journal of General Virology, 2001, 82, 1439-1450). Briefly, 10 μl Assay buffer (3 μM ATP, 60 μg/ml myelin basic protein (MBP) as substrate), 1.0 μCi γ-[^33P]ATP and 10 μl Basic buffer (20 mM Tris-HCl pH7.5, 0.5 mM MnCl2, 1 mM DTT (Dithiothreitol)) were given to the test tube before adding various concentrations of pyrazine derivatives. The reaction was started by adding 0.2 μl pUL-97 kinase, purified from infected Sf9-insect cells as described above. The total volume was adjusted with Basic buffer to a final volume of 30 μl. The reaction mix was incubated for 1 hr at 30° C. For negative control, 10 μl 0.1M EDTA (Ethylene Diamine tetraacetate) was added to reaction mix before addition of pUL-97 protein kinase. The reaction was stopped by addition of 10 μl 0.1 M EDTA.
Measuring Incorporation of Radioactivity:
The Immobilon plate (Millipore) was rinsed with 50 μl methanol/well. Following addition of 100 μl 0.1 M EDTA, 20 μl of each kinase reaction mix was added to one well of the Immobilon plate. Each well was washed 4× with 250 μl 0.75% phosphoric acid and 1× with 50 μl methanol. After addition of 50 μl scintillation cocktail (Roth, Germany) per well incorporation of radioactivity was measured using a Betareader (Wallac) and enzymatic activity calculated.

T1 sequence (P16788 whole entry): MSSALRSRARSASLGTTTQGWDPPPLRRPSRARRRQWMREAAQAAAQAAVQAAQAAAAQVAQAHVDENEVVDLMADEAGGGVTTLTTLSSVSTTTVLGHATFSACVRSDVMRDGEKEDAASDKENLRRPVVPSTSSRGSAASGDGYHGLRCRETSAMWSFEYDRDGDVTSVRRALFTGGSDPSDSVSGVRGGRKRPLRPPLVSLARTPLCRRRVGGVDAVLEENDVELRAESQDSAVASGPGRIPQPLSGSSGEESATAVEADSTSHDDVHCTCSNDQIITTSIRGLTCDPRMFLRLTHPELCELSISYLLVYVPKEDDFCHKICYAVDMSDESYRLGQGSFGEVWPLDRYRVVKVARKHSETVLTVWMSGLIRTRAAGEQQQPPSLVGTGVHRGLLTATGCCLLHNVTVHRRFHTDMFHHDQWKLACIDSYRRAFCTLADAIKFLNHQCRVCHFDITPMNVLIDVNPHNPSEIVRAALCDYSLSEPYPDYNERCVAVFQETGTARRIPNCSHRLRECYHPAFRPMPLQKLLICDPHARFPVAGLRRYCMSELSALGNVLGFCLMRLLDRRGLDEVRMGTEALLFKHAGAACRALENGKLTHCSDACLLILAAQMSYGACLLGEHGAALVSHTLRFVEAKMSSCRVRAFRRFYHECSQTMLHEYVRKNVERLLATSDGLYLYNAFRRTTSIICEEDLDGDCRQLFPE

Compound	IC50 [µM]
Cc1cccc(N2CCN(c3cncc(-c4cc5ccccc5s4)n3)CC2C)c1 (centres unmarked) [compound 300, 6′-Benzo[b]thiophen-2-yl-3-methyl-4-m-tolyl-3,4,5,6-tetrahydro-2H-[1,2′]bipyrazinyl]	10 to 100
Cc1ccc(-c2cncc(N3CCN(c4cnccn4)CC3)n2)cc1 [compound 330, 6-p-Tolyl-2′,3′,5′,6′-tetrahydro-[2,1′;4′,2″]terpyrazine]	1 to 10
Cc1ccc(N2CCN(c3cncc(-c4ccc(F)c(Cl)c4)n3)CC2)c(C)c1 [compound 281, 6′-(3-Chloro-4-fluoro-phenyl)-4-(2,4-dimethyl-phenyl)-3,4,5,6-tetrahydro-2H-[1,2′]bipyrazinyl]	10 to 100
Cc1ccc(N2CCN(c3cncc(-c4ccc(F)c(Cl)c4)n3)CC2)cc1C [compound 316, 6′-(3-Chloro-4-fluoro-phenyl)-4-(3,4-dimethyl-phenyl)-3,4,5,6-tetrahydro-2H-[1,2′]bipyrazinyl]	10 to 100
FC(F)(F)c1cccc(N2CCN(c3cncc(-c4ccoc4)n3)CC2)c1 [compound 255, 6′-Furan-3-yl-4-(3-trifluoromethyl-phenyl)-3,4,5,6-tetrahydro-2H-[1,2′]bipyrazinyl]	10 to 100
COc1ccccc1N1CCN(c2cncc(-c3ccc(F)c(Cl)c3)n2)CC1 [compound 242, 6′-(3-Chloro-4-fluoro-phenyl)-4-(2-methoxy-phenyl)-3,4,5,6-tetrahydro-2H-[1,2′]bipyrazinyl]	10 to 100
c1ccc(N2CCN(c3cncc(-c4ccsc4)n3)CC2)nc1 [compound 350, 4-Pyridin-2-yl-6′-thiophen-3-yl-3,4,5,6-tetrahydro-2H-[1,2′]bipyrazinyl]	1 to 10
Fc1ccccc1N1CCN(c2cncc(-c3cccc4ccccc34)n2)CC1 [compound 249, 4-(2-Fluoro-phenyl)-6′-naphthalen-1-yl-3,4,5,6-tetrahydro-2H-[1,2′]bipyrazinyl]	10 to 100

Now from value to compound:

IC50 [µM]	Compound
1 to 10	COc1ccc(-c2cncc(N3CCC(c4ccccc4)CC3)n2)cc1OC [compound 360, 2-(3,4-Dimethoxy-phenyl)-6-(4-Phenyl-piperidin-1-yl)-pyrazine]
1 to 10	Cc1cccc(-c2cncc(N3CCN(c4ccncc4)CC3)n2)c1 [compound 219, 4-Pyridin-4-yl-6′-m-tolyl-3,4,5,6-tetrahydro-2H-[1,2′]bipyrazinyl]
10 to 100	CSc1ccc(-c2cncc(N3CCN(c4cccc(C)c4)C(C)C3)n2)cc1 (centres unmarked) [compound 301, 3-Methyl-6′-(4-methylsulfanyl-phenyl)-4-m-tolyl-3,4,5,6-tetrahydro-2H-[1,2′]bipyrazinyl]
1 to 10	CN(C)c1ccc(-c2cncc(N3CCN(c4ccc(F)cc4F)CC3)n2)cc1 [compound 208]
1 to 10	COc1cccc(-c2cncc(N3CCN(c4ccccn4)CC3)n2)c1 [compound 304, 6′-(3-Methoxy-phenyl)-4-pyridin-2-yl-3,4,5,6-tetrahydro-2H-[1,2′]bipyrazinyl]

Same assay, conditions: inhibition of UL 97 kinase activity; class by IC50 / % inhibition at 10 or 100 μM; read-out: Activity Class [A, B, C]

Compound	IC50 [µM]
NC(=O)c1ccc(-c2cncc(NCc3ccccc3)n2)cc1 [compound 28, 4-(6-Benzylamino-pyrazin-2-yl)-benzamide]	< 1
OCc1ccc(-c2cncc(N3CCN(c4cccc5[nH]ccc45)CC3)n2)cc1 [compound 61, {4-[4-(1H-Indol-4-yl)-3,4,5,6-tetrahydro-2H-[1,2′]bipyrazinyl-6′-yl]-phenyl}-methanol]	10 to 100
COc1ccc(-c2cncc(N3CCN(c4ccccc4OC)CC3)n2)cc1OC [compound 107, 6′-(3,4-Dimethoxy-phenyl)-4-(2-methoxy-phenyl)-3,4,5,6-tetrahydro-2H-[1,2′]bipyrazinyl]	1 to 10
Fc1cccc(-c2cncc(N3CCN(c4ccccc4)CC3)n2)c1 [compound 194, 6′-(3-Fluoro-phenyl)-4-phenyl-3,4,5,6-tetrahydro-2H-[1,2′]bipyrazinyl]	10 to 100
CC(=O)c1ccc(N2CCN(c3cncc(-c4cccc(C)c4C)n3)CC2)cc1 [compound 150]	10 to 100
Clc1cccc(N2CCN(c3cncc(-c4ccccc4)n3)CC2)c1 [compound 97, 4-(3-Chloro-phenyl)-6′-phenyl-3,4,5,6-tetrahydro-2H-[1,2′]bipyrazinyl]	1 to 10
COc1ccc(-c2cncc(N3CCN(c4ccncc4)CC3)n2)cc1OC [compound 77, 6′-(3,4-Dimethoxy-phenyl)-4-pyridin-4-yl-3,4,5,6-tetrahydro-2H-[1,2′]bipyrazinyl]	< 1
CC(=O)c1cccc(-c2cncc(N3CCN(c4cccc(C(F)(F)F)c4)CC3)n2)c1 [compound 162, 1-{3-[4-(3-Trifluoromethyl-phenyl)-3,4,5,6-tetrahydro-2H-[1,2′]bipyrazinyl-6′-yl]-phenyl}-ethanone]	10 to 100
COc1ccc2cc(-c3cncc(N4CCN(c5ccccc5OC)CC4)n3)ccc2c1 [compound 187, 6′-(6-Methoxy-naphthalen-2-yl)-4-(2-methoxy-phenyl)-3,4,5,6-tetrahydro-2H-[1,2′]bipyrazinyl]	10 to 100
c1ccc(N2CCN(c3cncc(-c4ccoc4)n3)CC2)cc1 [compound 118, 6′-Furan-3-yl-4-phenyl-3,4,5,6-tetrahydro-2H-[1,2′]bipyrazinyl]	1 to 10

The next lines start with the values.

IC50 [µM]	Compound
10 to 100	Cc1cc(C)cc(-c2cncc(N3CCN(c4ccc(F)cc4)CC3)n2)c1 [compound 179, 6′-(3,5-Dimethyl-phenyl)-4-(4-fluoro-phenyl)-3,4,5,6-tetrahydro-2H-[1,2′]bipyrazinyl]
1 to 10	Fc1ccc(-c2cncc(N3CCN(c4ccncc4)CC3)n2)c(F)c1 [compound 46, 6′-(2,4-Difluoro-phenyl)-4-pyridin-4-yl-3,4,5,6-tetrahydro-2H-[1,2′]bipyrazinyl]
1 to 10	NC(=O)c1cccc(-c2cncc(N3CCN(c4ccncc4)CC3)n2)c1 [Comp. 71, 3-(4-Pyridin-4-yl-3,4,5,6-tetrahydro-2H-[1,2′]bipyrazinyl-6′-yl)-benzamide]
1 to 10	FC(F)(F)c1ccc(-c2cncc(N3CCN(c4ccccc4)CC3)n2)cc1 [compound 193, 4-Phenyl-6′-(4-trifluoromethyl-phenyl)-3,4,5,6-tetrahydro-2H-[1,2′]bipyrazinyl]
1 to 10	Fc1ccc(-c2cncc(N3CCN(c4cccc(Cl)c4)CC3)n2)cc1 [compound 99, 4-(3-Chloro-phenyl)-6′-(4-fluoro-phenyl)-3,4,5,6-tetrahydro-2H-[1,2′]bipyrazinyl]
1 to 10	CCOc1ccc(-c2cncc(N3CCN(c4ccccc4)CC3)n2)cc1 [compound 121, 6′-(4-Ethoxy-phenyl)-4-phenyl-3,4,5,6-tetrahydro-2H-[1,2′]bipyrazinyl]
< 1	CC(=O)c1ccc(-c2cncc(N3CCN(c4ccncc4)CC3)n2)s1 [compound 65, 1-[5-(4-Pyridin-4-yl-3,4,5,6-tetrahydro-2H-[1,2′]bipyrazinyl-6′yl)-thiophen-2-yl]-ethanone]
1 to 10	OCc1ccc(-c2cncc(N3CCN(c4cccc(Cl)c4)CC3)n2)cc1 [compound 83, {4-[4-(3-Chloro-phenyl)-3,4,5,6-tetrahydro-2H-[1,2′]bipyrazinyl-6′-yl]-phenyl}-methanol]
1 to 10	Fc1ccccc1N1CCN(c2cncc(-c3ccsc3)n2)CC1 [compound 122, 4-(2-Fluoro-phenyl)-6′-thiophen-3-yl-3,4,5,6-tetrahydro-2H-[1,2′]bipyrazinyl]
